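GI50 is the concentration that inhibits growth by half. TGI: total growth inhibition.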
How the values were obtained:
Assay in all cases: growth of human tumour cells (NCI), 384-well format
UO-31 renal = system: UO-31 renal
U251 glioblastoma = system: U251 glioblastoma
NCI-H522 lung = system: NCI-H522 lung
TK-10 renal = system: TK-10 renal
M14 melanoma = system: M14 melanoma
MDA-MB-435 melanoma = system: MDA-MB-435 melanoma
SW-620 colon = system: SW-620 colon
NCI-H460 NSCLC = system: NCI-H460 NSCLC
HL-60(TB) leukemia = system: HL-60(TB) leukemia
SF-539 CNS = system: SF-539 CNS
NCI-H322M lung = system: NCI-H322M lung
SK-MEL-5 melanoma = system: SK-MEL-5 melanoma
HT29 colon = system: HT29 colon
OVCAR-8 ovarian = system: OVCAR-8 ovarian
K-562 leukemia = system: K-562 leukemia
MDA-MB-231 breast = system: MDA-MB-231 breast
SNB-75 CNS = system: SNB-75 CNS
A549 NSCLC = system: A549 NSCLC
HCT-15 colon = system: HCT-15 colon
DU-145 prostate = system: DU-145 prostate
CCRF-CEM leukemia = system: CCRF-CEM leukemia
BT-549 breast = system: BT-549 breast
SR leukemia = system: SR leukemia
786-0 renal = system: 786-0 renal
SF-268 CNS = system: SF-268 CNS
SNB-19 CNS = system: SNB-19 CNS
SN12C renal = system: SN12C renal
A498 renal = system: A498 renal
HS 578T breast = system: HS 578T breast
NCI-H226 lung = system: NCI-H226 lung
LOX IMVI melanoma = system: LOX IMVI melanoma
MOLT-4 leukemia = system: MOLT-4 leukemia
NCI-H23 lung = system: NCI-H23 lung
PC-3 prostate = system: PC-3 prostate
HCT-116 colon = system: HCT-116 colon
HOP-92 NSCLC = system: HOP-92 NSCLC
UACC-62 melanoma = system: UACC-62 melanoma
SK-OV-3 ovarian = system: SK-OV-3 ovarian
T-47D breast = system: T-47D breast
NCI/ADR-RES ovarian = system: NCI/ADR-RES ovarian
ACHN renal = system: ACHN renal
SF-295 CNS = system: SF-295 CNS
RPMI-8226 leukemia = system: RPMI-8226 leukemia
IGROV1 ovarian = system: IGROV1 ovarian
EKVX NSCLC = system: EKVX NSCLC
MDA-MB-468 breast = system: MDA-MB-468 breast
HOP-62 NSCLC = system: HOP-62 NSCLC
KM12 colon = system: KM12 colon
SK-MEL-28 melanoma = system: SK-MEL-28 melanoma
CAKI-1 renal = system: CAKI-1 renal
OVCAR-3 ovarian = system: OVCAR-3 ovarian
COLO 205 colon = system: COLO 205 colon
HCC-2998 colon = system: HCC-2998 colon
OVCAR-4 ovarian = system: OVCAR-4 ovarian
UACC-257 melanoma = system: UACC-257 melanoma
MALME-3M melanoma = system: MALME-3M melanoma
MCF7 breast = system: MCF7 breast

SMILES: C[C@@H]1COCCN1c1cc(C2([S@@](C)(=N)=O)CC2)nc(-c2ccnc3[nH]ccc23)n1
- GI50 (UO-31 renal): 4.47 µM
- TGI (UO-31 renal): > 100 µM
- GI50 (U251 glioblastoma): 5.72 µM
- TGI (U251 glioblastoma): > 100 µM
- GI50 (NCI-H522 lung): 10.8 µM
- TGI (NCI-H522 lung): > 100 µM
- GI50 (TK-10 renal): 1.83 µM
- TGI (TK-10 renal): 6.26 µM
- GI50 (M14 melanoma): 2.44 µM
- TGI (M14 melanoma): 9.06 µM
- GI50 (MDA-MB-435 melanoma): 7.48 µM
- TGI (MDA-MB-435 melanoma): > 100 µM
- GI50 (SW-620 colon): 10.6 µM
- TGI (SW-620 colon): > 100 µM
- GI50 (NCI-H460 NSCLC): 1.38 µM
- TGI (NCI-H460 NSCLC): 10.5 µM
- GI50 (HL-60(TB) leukemia): 1.98 µM
- TGI (HL-60(TB) leukemia): 3.68 µM
- GI50 (SF-539 CNS): 2.16 µM
- TGI (SF-539 CNS): 6.4 µM
- GI50 (NCI-H322M lung): 1.78 µM
- TGI (NCI-H322M lung): 7.77 µM
- GI50 (SK-MEL-5 melanoma): 7.66 µM
- TGI (SK-MEL-5 melanoma): 25 µM
- GI50 (HT29 colon): 4.65 µM
- TGI (HT29 colon): 26.9 µM
- GI50 (OVCAR-8 ovarian): 7.62 µM
- TGI (OVCAR-8 ovarian): 32.2 µM
- GI50 (K-562 leukemia): 3.3 µM
- TGI (K-562 leukemia): 12 µM
- GI50 (MDA-MB-231 breast): 6.06 µM
- TGI (MDA-MB-231 breast): > 100 µM
- GI50 (SNB-75 CNS): 3.9 µM
- TGI (SNB-75 CNS): 51.8 µM
- GI50 (A549 NSCLC): 3.93 µM
- TGI (A549 NSCLC): 36.5 µM
- GI50 (HCT-15 colon): 4.48 µM
- TGI (HCT-15 colon): > 100 µM
- GI50 (DU-145 prostate): 3.82 µM
- TGI (DU-145 prostate): > 100 µM
- GI50 (CCRF-CEM leukemia): 0.902 µM
- TGI (CCRF-CEM leukemia): 2.26 µM
- GI50 (BT-549 breast): 1.98 µM
- TGI (BT-549 breast): 7.43 µM
- GI50 (SR leukemia): 0.0145 µM
- TGI (SR leukemia): 0.244 µM
- GI50 ([…]-0 renal): 2.32 µM
- TGI (786-0 renal): 12.1 µM
- GI50 (SF-268 CNS): 5.75 µM
- TGI (SF-268 CNS): 95.7 µM
- GI50 (SNB-19 CNS): 9.29 µM
- TGI (SNB-19 CNS): > 100 µM
- GI50 (SN12C renal): 4.3 µM
- TGI (SN12C renal): 50.1 µM
- GI50 (A498 renal): 1.12 µM
- TGI (A498 renal): 3.92 µM
- GI50 (HS 578T breast): 1.22 µM
- TGI (HS 578T breast): 3.37 µM
- GI50 (NCI-H226 lung): 16.1 µM
- TGI (NCI-H226 lung): 77 µM
- GI50 (LOX IMVI melanoma): 3.43 µM
- TGI (LOX IMVI melanoma): 14 µM
- GI50 (MOLT-4 leukemia): 1.35 µM
- TGI (MOLT-4 leukemia): 2.68 µM
- GI50 (NCI-H23 lung): 1.97 µM
- TGI (NCI-H23 lung): 5.21 µM
- GI50 (PC-3 prostate): 7.65 µM
- TGI (PC-3 prostate): > 100 µM
- GI50 (HCT-116 colon): 3.27 µM
- TGI (HCT-116 colon): 56.5 µM
- GI50 (HOP-92 NSCLC): 3.02 µM
- TGI (HOP-92 NSCLC): 13.1 µM
- GI50 (UACC-62 melanoma): 4.45 µM
- TGI (UACC-62 melanoma): 64.9 µM
- GI50 (SK-OV-3 ovarian): 3.29 µM
- TGI (SK-OV-3 ovarian): 41.8 µM
- GI50 (T-47D breast): 14.7 µM
- TGI (T-47D breast): > 100 µM
- GI50 (NCI/ADR-RES ovarian): 61.8 µM
- TGI (NCI/ADR-RES ovarian): > 100 µM
- GI50 (ACHN renal): 2.03 µM
- TGI (ACHN renal): 17.5 µM
- GI50 (SF-295 CNS): 2.68 µM
- TGI (SF-295 CNS): 13.7 µM
- GI50 (RPMI-8226 leukemia): 1.82 µM
- TGI (RPMI-8226 leukemia): 4.28 µM
- GI50 (IGROV1 ovarian): 3.47 µM
- TGI (IGROV1 ovarian): 32.9 µM
- GI50 (EKVX NSCLC): 9.1 µM
- TGI (EKVX NSCLC): 69.1 µM
- GI50 (MDA-MB-468 breast): 5.01 µM
- TGI (MDA-MB-468 breast): 27.3 µM
- GI50 (HOP-62 NSCLC): 2.15 µM
- TGI (HOP-62 NSCLC): 9.45 µM
- GI50 (KM12 colon): 1.8 µM
- TGI (KM12 colon): 27.1 µM
- GI50 (SK-MEL-28 melanoma): 23.8 µM
- TGI (SK-MEL-28 melanoma): > 100 µM
- GI50 (CAKI-1 renal): 3.87 µM
- TGI (CAKI-1 renal): 29.6 µM
- GI50 (OVCAR-3 ovarian): 4.62 µM
- TGI (OVCAR-3 ovarian): > 100 µM
- GI50 (COLO 205 colon): 9.01 µM
- TGI (COLO 205 colon): 62.6 µM
- GI50 (HCC-2998 colon): 1.1 µM
- TGI (HCC-2998 colon): 5.38 µM
- GI50 (OVCAR-4 ovarian): 5.37 µM
- TGI (OVCAR-4 ovarian): 75.1 µM
- GI50 (UACC-257 melanoma): 41.3 µM
- TGI (UACC-257 melanoma): > 100 µM
- GI50 (MALME-3M melanoma): 3.72 µM
- TGI (MALME-3M melanoma): 23.6 µM
- GI50 (MCF7 breast): 1.27 µM
- TGI (MCF7 breast): > 100 µM

From PubChem BioAssay (NCI)
